# Assays:
# [1] = Mouse local lymph node assay; type: in vivo
# [2] = target: NaV1.7 (Homo sapiens, UniProt Q15858); assay: In vitro electrophysiological studies: block of NaV1.7; type: biochemical; conditions: fold greater for the inactivated state
# Text: NaV1.7 is expressed primarily in the peripheral nervous system in both sensory and sympathetic neurons (Raymond, C. K., et al., op. cit.). Loss-of-function mutations in SCN9A (the gene encoding the alpha subunit of the NaV1.7 sodium channel) cause a human condition known as congenital indifference to pain characterized by an inability to perceive pain (Cox, J. J., et al., Nature (2006), 444:894-98; Goldberg, Y. P., et al., Clin Genet (2007), 71:311-9). Gain-of-function mutations in SCN9A are associated with inherited erythromelalgia (IEM) (Drenth, J. P., et al., J Invest Dermatology (2005), 124:1333-8), which is characterized by spontaneous or easily evoked severe pain. Furthermore, up to 29% of biopsy-proven cases of idiopathic small-fiber neuropathy manifesting mainly as distal severe pain (Faber, C. G., et al., Ann Neurol (2012), 71:26-39) are associated with gain-of-function NaV1.7 channel mutations.
# [3] = Protein binding in dog plasma; type: in vitro ADME
# [4] = system: CCI model of neuropathic pain; assay: Chronic constriction injury (CCI) model of neuropathic pain; conditions: rat, in vivo
# [5] = system: complete Freund's adjuvant (CFA) model of inflammatory pain; assay: Complete Freund's adjuvant (CFA) model of inflammatory pain; type: in vivo; conditions: rat, topical
# [6] = Metabolite identification in samples (in vitro and in vivo); type: in vitro ADME; conditions: samples (in vitro and in vivo) from rats, dogs, and humans
# Text: (§1) A total of 8 metabolites were identified in samples (in vitro and in vivo) from rats, dogs, and humans. All metabolites found in humans were also found in the Good Laboratory Practice (GLP) toxicology species, the rat. Following oral administration of spiro-oxindole compound to humans, spiro-oxindole compound and 3 of its metabolites (M1, M5, and M6) were measurable. A similar metabolic profile was observed following topical administration to humans, albeit at much lower plasma concentrations, except metabolite M1 was not detected following human topical administration.
# [7] = in vivo; set-up: species or system rats; conditions: rat, po
# Procedure: The no-observed-adverse-effect level (NOAEL) was determined to be 150 mg/kg/day in both males and females. […] The NOAEL for maternal toxicity was 50 mg/kg/day. […] The NOAEL for embryo-fetal toxicity was 150 mg/kg/day.
# [8] = system: streptozotocin-induced neuropathic pain model; assay: Streptozotocin-induced neuropathic pain model, mechanical allodynia (paw withdrawal threshold); type: in vivo, rats; conditions: topical, diabetic neuropathic pain model
# Text: Topical 4% Test Pharmaceutical Composition was compared with lidocaine and diclofenac for relief of mechanical allodynia in the streptozotocin-induced neuropathic pain model in rats.
# [9] = 4-week (GLP) repeat-dose dermal toxicity study in minipigs; conditions: minipig, in vivo, topical or ocular, 30 mg/kg/day dermal, day 28; for AUC(0-t): read-out: AUC0-24 h
# Procedure: Repeat-dose dermal toxicity of a pharmaceutical composition comprising the spiro-oxindole compound was evaluated in minipigs in a 7-day (non-GLP) dermal study and in a 4-week (GLP) dermal study with a 2-week recovery period. In addition, a dose range-finding (DRF) dermal study in minipigs was conducted to aid in dose selection for a 39-week dermal toxicity study in minipigs.
# However, the vehicle ointment produced in all treatment groups transient, mild to moderate, and occasionally severe dermal irritation that returned to normal during the recovery period. This correlated with minimal epidermal hyperplasia observed microscopically in the treated skin across all groups.
# [10] = system: rat hepatocytes; assay: In vitro metabolic stability in hepatocytes (rat); type: in vitro ADME; conditions: ^14C-spiro-oxindole compound
# Text: as §1
# [11] = Phototoxicity assays (in vitro or in vivo)
# [12] = system: minipig hepatocytes; assay: In vitro metabolic stability in hepatocytes (minipig); type: in vitro ADME; conditions: ^14C-spiro-oxindole compound
# Text: as §1
# [13] = Protein binding in human plasma; type: in vitro ADME
# [14] = target: CYP450 2D6 (Homo sapiens, UniProt P10635); assay: Reaction phenotyping with recombinant human CYP450 enzymes: CYP2D6; type: in vitro ADME; conditions: recombinant human CYP450 2D6
# Chain of CYP450 2D6 (P10635 whole entry): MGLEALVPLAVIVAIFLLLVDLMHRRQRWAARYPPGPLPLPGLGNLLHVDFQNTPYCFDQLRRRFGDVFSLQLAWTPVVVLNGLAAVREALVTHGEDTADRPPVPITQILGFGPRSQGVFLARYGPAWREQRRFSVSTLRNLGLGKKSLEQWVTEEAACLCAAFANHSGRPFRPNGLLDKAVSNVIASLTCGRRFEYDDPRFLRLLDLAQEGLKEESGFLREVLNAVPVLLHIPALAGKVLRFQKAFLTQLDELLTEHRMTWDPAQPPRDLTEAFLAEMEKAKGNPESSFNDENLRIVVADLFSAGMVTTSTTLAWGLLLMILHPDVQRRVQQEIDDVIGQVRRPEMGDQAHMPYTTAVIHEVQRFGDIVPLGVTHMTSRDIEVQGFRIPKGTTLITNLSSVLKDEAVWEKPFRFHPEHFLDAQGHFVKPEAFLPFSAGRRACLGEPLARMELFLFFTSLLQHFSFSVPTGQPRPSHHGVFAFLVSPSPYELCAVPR
# [15] = ADME study in the minipig after repeated daily dermal dosing (Biological Example 1); type: in vivo, Göttingen minipig; conditions: for mean tissue radioactivity concentration / total radioactivity in tissue: 24 h after [^14C] dermal dose
# Text: On the day prior to the first dermal dose, the dorsum and flanks of each animal were carefully clipped using electric clippers and shaved using an electric rotary head shaver (Phillips). Clipping and shaving was as close as possible to the skin, whilst avoiding damage to the dose site. […] The corners of the treatment area (equivalent to about 6% body surface area, 11 cm×19 cm-12 cm×22 cm) were marked using an indelible pen. The process of hair removal was repeated periodically during the dose administration period as necessary.
# [16] = system: CYP3A4; assay: In vitro CYP3A4 induction; type: in vitro ADME
# Chain of NaV1.7 (Q15858 whole entry): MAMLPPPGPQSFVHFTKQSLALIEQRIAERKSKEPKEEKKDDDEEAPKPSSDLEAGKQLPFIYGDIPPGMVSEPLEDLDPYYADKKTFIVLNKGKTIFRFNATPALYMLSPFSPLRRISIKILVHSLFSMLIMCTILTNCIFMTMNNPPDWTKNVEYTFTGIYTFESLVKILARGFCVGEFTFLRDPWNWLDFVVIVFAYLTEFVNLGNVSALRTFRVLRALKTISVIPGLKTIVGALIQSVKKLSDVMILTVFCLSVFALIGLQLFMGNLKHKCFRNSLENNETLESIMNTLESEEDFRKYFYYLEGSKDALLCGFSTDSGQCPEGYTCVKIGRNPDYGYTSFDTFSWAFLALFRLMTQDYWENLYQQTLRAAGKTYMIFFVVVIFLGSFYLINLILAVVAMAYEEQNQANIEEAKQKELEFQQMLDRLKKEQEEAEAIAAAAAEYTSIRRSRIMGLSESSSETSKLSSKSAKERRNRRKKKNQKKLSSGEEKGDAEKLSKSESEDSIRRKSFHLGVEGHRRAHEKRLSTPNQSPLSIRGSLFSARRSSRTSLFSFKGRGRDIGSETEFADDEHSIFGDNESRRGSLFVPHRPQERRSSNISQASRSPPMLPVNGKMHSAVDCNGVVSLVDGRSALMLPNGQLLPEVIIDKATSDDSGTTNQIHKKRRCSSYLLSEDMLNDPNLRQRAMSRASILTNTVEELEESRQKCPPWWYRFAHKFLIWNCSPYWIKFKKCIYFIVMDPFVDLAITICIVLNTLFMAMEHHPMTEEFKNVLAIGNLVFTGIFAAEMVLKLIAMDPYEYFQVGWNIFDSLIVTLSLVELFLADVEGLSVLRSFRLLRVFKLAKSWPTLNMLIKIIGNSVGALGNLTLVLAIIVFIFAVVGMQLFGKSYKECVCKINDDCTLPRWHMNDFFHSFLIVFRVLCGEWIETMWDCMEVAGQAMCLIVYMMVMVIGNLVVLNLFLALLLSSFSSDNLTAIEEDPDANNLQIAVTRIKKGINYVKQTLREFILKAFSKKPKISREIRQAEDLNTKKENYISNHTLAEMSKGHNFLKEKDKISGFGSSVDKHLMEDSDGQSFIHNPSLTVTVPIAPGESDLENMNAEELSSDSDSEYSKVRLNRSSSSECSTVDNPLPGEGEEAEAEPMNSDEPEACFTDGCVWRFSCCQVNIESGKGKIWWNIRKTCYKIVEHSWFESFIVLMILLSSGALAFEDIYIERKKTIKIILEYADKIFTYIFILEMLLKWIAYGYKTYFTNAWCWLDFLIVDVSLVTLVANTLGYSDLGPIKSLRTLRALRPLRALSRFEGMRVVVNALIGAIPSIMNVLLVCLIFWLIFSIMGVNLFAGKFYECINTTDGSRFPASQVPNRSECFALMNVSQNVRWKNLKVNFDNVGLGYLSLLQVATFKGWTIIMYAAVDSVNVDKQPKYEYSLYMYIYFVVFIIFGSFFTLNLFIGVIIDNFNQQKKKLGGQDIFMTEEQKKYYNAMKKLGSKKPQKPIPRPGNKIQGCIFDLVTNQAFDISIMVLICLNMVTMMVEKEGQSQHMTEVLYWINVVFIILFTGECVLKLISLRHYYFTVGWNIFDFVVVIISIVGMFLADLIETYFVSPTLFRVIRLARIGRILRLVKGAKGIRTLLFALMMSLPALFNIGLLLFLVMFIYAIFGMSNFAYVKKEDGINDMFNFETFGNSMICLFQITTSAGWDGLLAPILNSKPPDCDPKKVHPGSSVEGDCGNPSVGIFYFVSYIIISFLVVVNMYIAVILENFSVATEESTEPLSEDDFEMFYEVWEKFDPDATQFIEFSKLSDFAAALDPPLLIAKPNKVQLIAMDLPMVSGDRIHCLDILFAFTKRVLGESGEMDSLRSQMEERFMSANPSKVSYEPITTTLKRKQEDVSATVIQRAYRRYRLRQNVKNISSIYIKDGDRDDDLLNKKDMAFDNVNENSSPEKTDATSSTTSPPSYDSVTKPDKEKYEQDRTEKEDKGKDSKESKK
structure (smiles),measurement,setting,value
"O=C1N(Cc2ccc(C(F)(F)F)o2)c2ccccc2[C@]12COc1cc3c(cc12)OCO3 [spiro-oxindole compound, (S)-1′-{[5-(trifluoromethyl)furan-2-yl]methyl}spiro[furo[2,3-f][1,3]benzodioxole-7,3′-indol]-2′(1′H)-one]",skin sensitization,[1],not a skin sensitizer
same,"potency of block against NaV1.7, inactivated state compared with resting state",[2],approximately 220 fold
same,protein bound,[3],98.3%
same,efficacy compared with gabapentin,[4],comparable efficacy to gabapentin
same,minimum effective dose associated with pain relief,[5],2 % (w/w)
same,total number of metabolites identified,[6],8 metabolites
same,NOAEL,[7]; both sexes,150 mg/kg/day
same,AUC(0-t),"[7]; female, 50 mg/kg/day",18000 ng·h/mL
same,Cmax,"[7]; female, 50 mg/kg/day",1440 ng/mL
same,AUC(0-t),"[7]; female, 150 mg/kg/day",41500 ng·h/mL
same,Cmax,"[7]; female, 150 mg/kg/day",3380 ng/mL
same,NOAEL,"[7]; female, NOAEL for embryo-fetal toxicity",150 mg/kg/day
same,NOAEL,"[7]; female, NOAEL for maternal toxicity",50 mg/kg/day
same,efficacy compared with 5% lidocaine,[8],superior efficacy to 5% lidocaine
same,Cmax,[9]; female minipigs,20 ng/mL
same,AUC(0-t),[9]; female minipigs,382 ng·h/mL
same,Cmax,[9]; male minipigs,21 ng/mL
same,AUC(0-t),[9]; male minipigs,365 ng·h/mL
same,in vitro metabolic stability in hepatocytes,[10],16%
same,phototoxicity potential,[11],did not show phototoxicity potential
same,in vitro metabolic stability in hepatocytes,[12],18%
same,protein bound,[13],99.4%
same,contribution to spiro-oxindole compound metabolism,[14],likely to play a less extensive role
same,Cmax,"[15]; male, Göttingen, minipig, plasma, topical or ocular, 70 mg ointment/kg, minipigs, 21 days of repeated dermal dosing, read-out: mean maximum observed concentration (Cmax) in plasma",15 ng/mL
same,mean tissue radioactivity concentration,"[15]; minipig, bone marrow",154 ng equivalents spiro-oxindole compound/g
same,mean tissue radioactivity concentration,"[15]; minipig, fat (abdominal / white)",273 ng equivalents spiro-oxindole compound/g
same,mean tissue radioactivity concentration,"[15]; minipig, fat (brown)",100 ng equivalents spiro-oxindole compound/g
same,mean tissue radioactivity concentration,"[15]; minipig, gall bladder contents",4870 ng equivalents spiro-oxindole compound/g
same,total radioactivity in tissue,"[15]; minipig, heart",18.5 ng equiv spiro-oxindole compound/g
same,total radioactivity in tissue,"[15]; minipig, liver",74.9 ng equiv spiro-oxindole compound/g
same,mean tissue radioactivity concentration,"[15]; minipig, muscle underlying the dose site",142 ng equivalents spiro-oxindole compound/g
same,mean tissue radioactivity concentration,"[15]; minipig, skin from the dose site",25500 ng equivalents spiro-oxindole compound/g
same,mean tissue radioactivity concentration,"[15]; minipig, skin remote from the dose site",111 ng equivalents spiro-oxindole compound/g
same,systemic exposure (in words),"[15]; minipigs, repeated daily dermal dosing of 8% ointment",low systemic exposure
same,induction of CYP3A4,[16],may also be a strong inducer of CYP3A4 with an activation potency similar to rifampicin

# Reference: patent US9682033B2, “Methods of treating postherpetic neuralgia with a topical formulation of a spiro-oxindole compound” (Teva Pharmaceuticals International GmbH, priority 2015, dated 2017)
